One block for each compound: values may come before it.
Assay: solvent given as SMILES
[1] = in c1ccc2c(c1)c1ccccc1n2-c1ccc(-c2ccc(-n3c4ccccc4c4ccccc43)cc2)cc1

emission maximum (in ClCCl): 455 nm
Compound: c1ccc(N2N=C(c3cccc4ccccc34)CC2c2ccc3ccc4cccc5ccc2c3c45)cc1 (stereo not drawn)

emission maximum (in C1COCCO1): 354 nm
Compound: c1ccc(-c2cc(-c3ccccc3)cc(-c3ccccc3)c2)cc1

emission maximum (in ClCCl): 519 nm
Compound: CCCCCCN1C(=O)c2cccc3c(-c4ccc(-c5cc(-c6ccc(C)cc6)nn5-c5ccccc5)s4)ccc(c23)C1=O

Compound: CCN1c2ccc(/C=N/Nc3ccccn3)cc2Sc2cc(/C=N/Nc3ccccn3)ccc21
emission maximum (in C1CCOC1): 495 nm
emission maximum (in CS(C)=O): 507 nm
emission maximum (in Cc1ccccc1): 491 nm
emission maximum (in ClCCl): 498 nm

emission maximum (in CC#N): 574 nm
emission maximum (in ClCCl): 572 nm
Compound: COc1ccc2nc(/N=N/c3ccc(N(C)C)cc3)sc2c1

Compound: c1ccc2c(c1)c1ccccc1n2-c1ccc(-c2cc3ccc(-c4ccc5cc(-c6ccc(-n7c8ccccc8c8ccccc87)cc6)oc5c4)cc3o2)cc1
emission maximum (in Cc1ccccc1): 407 nm
emission maximum [1]: 419 nm

Compound: CN(C)c1cccc2c1ccc1c(=O)oc(-c3ccc(C(F)(F)F)cc3)cc12
emission maximum (in CC(C)=O): 611 nm
emission maximum (in CCCCCCCCO): 585 nm
emission maximum (in CCCCO): 586 nm
emission maximum (in CCCO): 591 nm
emission maximum (in CCO): 602 nm
emission maximum (in CCOC(C)=O): 578 nm
emission maximum (in CN(C)C=O): 614 nm
emission maximum (in CO): 612 nm
emission maximum (in ClC(Cl)Cl): 538 nm

emission maximum (in ClC(Cl)Cl): 457 nm
Compound: CC(C)n1c(=O)c2cc3ccc4cccc5ccc(c2c1=O)c3c45

Compound: F[B-]1(F)n2cccc2C(c2c3ccccc3cc3ccccc23)=C2C=CC=[N+]21
emission maximum (in CC#N): 519 nm
emission maximum (in CCCCCC): 521 nm
emission maximum (in CCO): 520 nm
emission maximum (in CN(C)C=O): 524 nm
emission maximum (in Cc1ccccc1): 525 nm
emission maximum (in ClCCl): 520 nm

emission maximum (in ClC(Cl)Cl): 495 nm
Compound: CCCCCCN1C(=O)c2cccc3cc(/N=C\c4nc5ccccc5s4)cc(c23)C1=O

emission maximum (in C1CCCCC1): 435 nm
emission maximum (in CO): 501 nm
emission maximum (in CS(C)=O): 482 nm
emission maximum (in ClC(Cl)Cl): 455 nm
emission maximum (in c1ccccc1): 447 nm
Compound: CCC1=C(C)C(=O)n2c1cc1c(c(C)c(C(=O)OC)n1C)c2=O

emission maximum (in CC#N): 435 nm
emission maximum (in ClCCl): 437 nm
Compound: COc1ccc(-c2cc3c(s2)c(-c2ccccc2)cc(=O)n3C)cc1

emission maximum (in CC#N): 682 nm
Compound: F[B-]1(F)n2c(-c3ccccc3)cc(-c3ccccn3)c2N=C2C(c3ccccn3)=CC(c3ccccc3)=[N+]21

emission maximum (in ClCCl): 712 nm
Compound: CCN(CC)c1ccc2c(-c3ccccc3C(=O)O)c3c([o+]c2c1)/C(=C/c1ccc2c(c1)c1ccccc1n2CC)CCC3

emission maximum (in ClC(Cl)Cl): 700 nm
Compound: COc1ccc(N(c2ccc(OC)cc2)c2ccc(-c3ccc(C=C(C#N)C#N)s3)cc2)cc1

emission maximum (in CCCCO): 477 nm
emission maximum (in CCCO): 479 nm
emission maximum (in CCO): 485 nm
emission maximum (in CO): 490 nm
emission maximum (in OCC(O)CO): 501 nm
emission maximum (in OCCO): 495 nm
Compound: O=S(=O)(O)c1cccc2cccc(Nc3ccccc3)c12

Compound: FC(F)(F)c1cc2n(n1)[B-]1(c3ccccc3Oc3ccccc31)[n+]1ccc3ccccc3c1-2
emission maximum (in C1CCCCC1): 473 nm
emission maximum (in Cc1ccccc1): 517 nm
emission maximum (in ClCCl): 543 nm

emission maximum (in ClCCl): 541 nm
Compound: C(#Cc1c2ccccc2c(-c2ccccc2)c2cc3ccccc3cc12)c1ccccc1

Compound: O=P1(c2ccccc2)c2cc(N3c4ccccc4Oc4ccccc43)ccc2-c2ccc(N3c4ccccc4Oc4ccccc43)cc21
emission maximum (in Cc1ccccc1): 540 nm
emission maximum [1]: 550 nm

emission maximum (in ClC(Cl)Cl): 424 nm
Compound: c1ccc2c(c1)ccc1ccc3ccc4ccccc4c3c12

emission maximum (in CC#N): 413 nm
emission maximum (in CO): 444 nm
emission maximum (in ClC(Cl)Cl): 410 nm
emission maximum (in c1ccccc1): 400 nm
Compound: COc1ccc(N2C(=O)c3ccccc3NC2C(C)(C)C)cc1 (stereo not drawn)

Compound: C(#Cc1ccc(N(c2ccc(C#Cc3ccc(-c4cc(-c5ccccc5)nc(-c5ccccc5)c4)cc3)cc2)c2ccc(C#Cc3ccc(-c4cc(-c5ccccc5)nc(-c5ccccc5)c4)cc3)cc2)cc1)c1ccc(-c2cc(-c3ccccc3)nc(-c3ccccc3)c2)cc1
emission maximum (in C1CCOC1): 455 nm
emission maximum (in Cc1ccccc1): 426 nm

Compound: CN(C)c1ccc(C(=O)Nc2cccc(Cl)c2)cc1
emission maximum (in C1CCCCC1): 338 nm
emission maximum (in C1CCOC1): 455 nm
emission maximum (in CC#N): 496 nm
emission maximum (in CCOCC): 445 nm

emission maximum (in ClCCl): 479 nm
Compound: CCN(CC)c1ccc2cc(-c3nc4ccccc4n3-c3ccccc3)c(=O)oc2c1

Compound: COc1ccc(-c2nc(N)nc(C#N)c2C#N)cc1OC
emission maximum (in C1COCCO1): 428 nm
emission maximum (in CC#N): 456 nm
emission maximum (in CC(C)=O): 430 nm
emission maximum (in CCO): 436 nm
emission maximum (in CCOC(C)=O): 442 nm
emission maximum (in CO): 442 nm

emission maximum (in ClCCl): 381 nm
Compound: c1ccc(N(c2ccccc2)c2ccc(-n3ccc4cc(-c5cccc6c5-c5ccccc5C6(c5ccccc5)c5ccccc5)ccc43)cc2)cc1

emission maximum (in CC#N): 407 nm
Compound: C[n+]1ccc2c(ccc3c[n+](C)ccc32)c1

emission maximum (in CCCCCC): 551 nm
Compound: CC(C)[Si](C#Cc1c2nsnc2c(C#C[Si](C(C)C)(C(C)C)C(C)C)c2nc3c(nc12)Cc1ccccc1-3)(C(C)C)C(C)C

Compound: [C-]#[N+]c1ccc(-c2ccc(N)cc2)cc1
emission maximum (in C1CCCCC1): 354 nm
emission maximum (in C1CCOC1): 396 nm
emission maximum (in C1COCCO1): 383 nm
emission maximum (in CC#N): 410 nm
emission maximum (in CC(C)=O): 407 nm
emission maximum (in CCCCCC): 353 nm
emission maximum (in CCOC(C)=O): 397 nm
emission maximum (in CN(C)C=O): 423 nm
emission maximum (in CO): 419 nm
emission maximum (in CS(C)=O): 424 nm
emission maximum (in Cc1ccccc1): 371 nm
emission maximum (in ClC(Cl)Cl): 398 nm
emission maximum (in ClCCl): 390 nm
emission maximum (in O): 457 nm
emission maximum (in c1ccncc1): 415 nm

Compound: CC(C)(C)c1ccccc1N(c1ccccc1)c1ccc(S(=O)(=O)c2ccc(S(=O)(=O)c3ccc(N(c4ccccc4)c4ccccc4C(C)(C)C)cc3)cc2)cc1
emission maximum (in Cc1ccccc1): 444 nm
emission maximum (in c1cc(-n2c3ccccc3c3ccccc32)nc(-n2c3ccccc3c3ccccc32)c1): 465.06 nm

emission maximum (in ClCCl): 506 nm
Compound: Cc1cccc2nc(-c3ccc(-c4cc(=O)cc(-c5ccccc5)o4)cc3)c(NC3CCCCC3)n12

emission maximum (in ClCCl): 501 nm
Compound: CCc1cccc(CC)c1-c1c2ccccc2c(-c2c(CC)cccc2CC)c2cc3ccccc3cc12

emission maximum (in ClCCl): 608 nm
Compound: COc1ccc(C2=C(C)C3=C(c4c(-c5ccccn5)nc5ccccn45)c4c(C)c(-c5ccc(OC)cc5)c(C)n4[B-](F)(F)[N+]3=C2C)cc1

emission maximum (in CC#N): 412 nm
emission maximum (in CCCCCC): 396 nm
emission maximum (in CO): 418 nm
emission maximum (in CS(C)=O): 425 nm
emission maximum (in ClC(Cl)Cl): 414 nm
Compound: CCC1=C(C)C2=Cc3cscc3B(O)N2C1=O

emission maximum (in ClCCl): 619 nm
Compound: c1ccc(CSc2c3ccc(=[N+]4CCCCC4)cc-3oc3cc(N4CCCCC4)ccc23)cc1

Compound: CCC1=C(C)C2=Cc3c4ccccc4c4n3[B-](C)(Oc3ccccc3-4)[N+]2=C1C (stereo not drawn)
emission maximum (in CC#N): 630 nm
emission maximum (in CCCCCC): 632 nm
emission maximum (in Cc1ccccc1): 636 nm
emission maximum (in ClCCl): 635 nm

Compound: CC(C)(C)c1cc2ccc3cc(C(C)(C)C)cc4c3c2c(c1)c(=O)n1c4nc2c3cc(C(C)(C)C)cc4ccc5cc(C(C)(C)C)cc(c5c43)c21
emission maximum (in C1CCOC1): 523 nm
emission maximum (in CC#N): 551 nm
emission maximum (in CC(C)=O): 544 nm
emission maximum (in CCCCCC): 495 nm
emission maximum (in CCOC(C)=O): 524 nm
emission maximum (in CS(C)=O): 553 nm
emission maximum (in Cc1ccc(C)cc1): 521 nm
emission maximum (in ClC(Cl)(Cl)Cl): 520 nm
emission maximum (in ClC(Cl)Cl): 551 nm
emission maximum (in c1ccccc1): 524 nm

Compound: FC(F)(F)c1ccc(/C=C/c2nc(/C=C/c3ccc(N(c4ccccc4)c4ccccc4)cc3)cc(/C=C/c3ccc(N(c4ccccc4)c4ccccc4)cc3)n2)cc1
emission maximum (in C1CCOC1): 526 nm
emission maximum (in CC#N): 600 nm
emission maximum (in CC(C)=O): 567 nm
emission maximum (in CCCCCCC): 467 nm
emission maximum (in CS(C)=O): 599 nm
emission maximum (in Cc1ccccc1): 486 nm
emission maximum (in ClCCl): 554 nm

emission maximum (in ClCCl): 537 nm
Compound: CCc1ccccc1-c1c2ccccc2c(C#Cc2ccccc2)c2cc3ccccc3cc12

emission maximum (in ClCCl): 682 nm
Compound: COC(=O)CCC1=CC(C#Cc2ccc(OC)cc2)=[N+]2C1=Cc1c(CCC(=O)OC)cc(C#Cc3ccc(OC)cc3)n1[B-]2(F)F

Compound: N#Cc1ccc(C#Cc2ccc3ccc4ccc(C#Cc5ccc(C#N)cc5)c5ccc2c3c45)cc1
emission maximum (in C1COCCO1): 443.3 nm
emission maximum (in CC(C)=O): 445.8 nm
emission maximum (in CCCCCC): 435.5 nm
emission maximum (in CCCCCCO): 448 nm
emission maximum (in CCO): 445.5 nm
emission maximum (in CCOC(C)=O): 442.4 nm
emission maximum (in CO): 445.3 nm
emission maximum (in Cc1ccccc1): 446.4 nm
emission maximum (in ClCCl): 448.8 nm

emission maximum (in ClCCl): 511 nm
Compound: CCCCCCCCCCCCCCCCCCOc1ccc([B-]23NC(c4ccccc4)=Nc4cccc([n+]42)N=C(c2ccccc2)N3)cc1

emission maximum (in CCO): 564 nm
emission maximum (in O): 572 nm
Compound: CN(C)c1ccc2c(-c3ccc(N)cc3C(=O)[O-])c3ccc(=[N+](C)C)cc-3oc2c1

emission maximum (in CO): 350 nm
emission maximum (in CS(C)=O): 360 nm
Compound: COc1ccc(NC(=O)C(C(=O)Nc2ccc(OC)cc2)C(c2ccccc2O)c2c(C)[nH]c3ccccc23)cc1 (stereo not drawn)

emission maximum (in CS(C)=O): 567 nm
Compound: C[N+]1=C(/C=C/C=C2/N(CCCc3ccccc3)c3ccccc3C2(C)C)C(C)(C)c2ccccc21

emission maximum (in C1CCOC1): 421.77 nm
Compound: COC(=O)C1(C(=O)OC)Cc2c(C#Cc3ccc(OC)cc3)c(-c3ccc(OC)cc3)c3c(-c4ccccc4)c(-c4ccccc4)c(-c4ccccc4)c(-c4ccccc4)c3c2C1

emission maximum (in ClC(Cl)Cl): 387 nm
Compound: c1ccc(-c2c3c(nc4ccccc24)-c2cc4c(cc2CC3)-c2nc3ccccc3c(-c3ccccc3)c2CC4)cc1

Compound: Cc1ccc(NC(=O)c2ccc(N(C)C)cc2)cc1
emission maximum (in C1CCCCC1): 465 nm
emission maximum (in C1CCOC1): 532 nm
emission maximum (in CC#N): 502 nm
emission maximum (in CCOCC): 518 nm

emission maximum (in CC#N): 445 nm
Compound: COc1ccc(-c2pc3ccccc3s2)cc1 (stereo not drawn)

emission maximum (in ClCCl): 469 nm
Compound: Fc1ccc(-c2cccc3ncc(-c4ccccc4)n23)cc1
